# Measurements as given in publication PMC9401498 (Clinical Cancer Research, 2021).
# What was measured:
# glutamine = test: Plasma glutamine concentration; type: in vivo, human; settings: cycle 1, day 15 relative to predose on cycle 1, day 1; P = 0.0073; n = 6
# [1] = tested on: renal cell carcinoma (RCC); test: Antitumor activity by RECIST v1.1, RCC cohorts; type: in vivo, human
# [2] = All RCC (n = 28), number (percent) of efficacy evaluable patients
structure (smiles),measurement,setting,value
"O=C(Cc1cccc(OC(F)(F)F)c1)Nc1ccc(CCCCc2nnc(NC(=O)Cc3ccccn3)s2)nn1 [telaglenastat, Telaglenastat]",increase in plasma glutamine,glutamine,approximately 150%
same,Disease control rate (DCR),"[1]; 28 evaluable patients with RCC in both dose escalation and dose expansion, 14/28",50%
same,Best overall response: Partial response,[1]; [2],1 (3.6)
same,Best overall response: Progressive disease,[1]; [2],14 (50.0)
same,Best overall response: Stable disease,[1]; [2],13 (46.4)
same,reduction in target lesions,[1]; clear cell RCC patient with PR (800 mg BID),32%
same,patients with RCC remaining on study for more than 10 months,[1]; in vivo,Four
same,time on study,[1]; one clear cell patient with RCC,> 2.4 years
same,overall response rate,[1]; renal cell carcinoma,5%
